Experimental data taken from ChEMBL document CHEMBL5131502, “Improving the treatment of Parkinson's disease: Structure-based development of novel 5-HT2A receptor antagonists/inverse agonists” (Eur J Med Chem, 2022).

Experiments:
[1] = target: T1, 5-hydroxytryptamine receptor 2A (Homo sapiens, UniProt P28223); test: Antagonist activity at 5-HT2A receptor (unknown origin) expressed in CHO-K1 cells assessed as reduction in intracellular Ca2+ mobilization incubated for 15 mins by FLIPR assay; assay type: functional, cell-based
[2] = target: T1, 5-hydroxytryptamine receptor 2A; test: Inverse agonist activity at 5-HT2A receptor (unknown origin) expressed in mouse NIH3T3 cells using o-nitrophenyl-D-galacto pyranoside incubated for 120 hrs; assay type: functional, cell-based
[3] = target: T1, 5-hydroxytryptamine receptor 2A; test: Potency index, ratio of pimavanserin IC50 to test compound IC50 for antagonist activity at 5-HT2A receptor (unknown origin) expressed in CHO-K1 cells assessed as reduction in intracellular Ca2+ mobilization incubated for 15 mins by FLIPR assay; assay type: functional, cell-based
[4] = target: T1, 5-hydroxytryptamine receptor 2A; test: Potency index, ratio of pimavanserin IC50 to test compound IC50 for inverse agonist activity at 5-HT2A receptor (unknown origin) expressed in mouse NIH3T3 cells using o-nitrophenyl-D-galacto pyranoside incubated for 120 hrs; assay type: cell-based
[5] = Metabolic stability in Sprague-Dawley rat liver microsomes assessed as compound remaining at 100 uM […] followed by NADPH addition by LC/MS analysis; assay type: ADME, Microsome; conditions: read-out: Stability
[6] = target: Voltage-gated inwardly rectifying potassium channel KCNH2 (Homo sapiens, UniProt Q12809); test: Inhibition of hERG potassium channel expressed in CHO cells at -80 mV holding potential by whole cell patch clamp assay; assay type: toxicity, cell-based
[7] = Metabolic stability in Sprague-Dawley rat liver microsomes assessed as half life at 100 uM preincubated for 10 mins followed by NADPH addition by LC/MS analysis; assay type: ADME, Microsome
[8] = Metabolic stability in human liver microsomes assessed as half life at 100 uM preincubated for 10 mins followed by NADPH addition by LC/MS analysis; assay type: ADME, Microsome
[9] = Metabolic stability in Sprague-Dawley rat liver microsomes assessed as intrinsic clearance at 100 uM preincubated for 10 mins followed by NADPH addition by LC/MS analysis; assay type: ADME, Microsome; conditions: read-out: CLH
[10] = Metabolic stability in human liver microsomes assessed as intrinsic clearance at 100 uM preincubated for 10 mins followed by NADPH addition by LC/MS analysis; assay type: ADME, Microsome; conditions: read-out: CLH
[11] = Metabolic stability in human liver microsomes assessed as compound remaining at 100 uM […] followed by NADPH addition by LC/MS analysis; assay type: ADME, Microsome; conditions: read-out: Stability

T1 sequence (P28223 whole entry): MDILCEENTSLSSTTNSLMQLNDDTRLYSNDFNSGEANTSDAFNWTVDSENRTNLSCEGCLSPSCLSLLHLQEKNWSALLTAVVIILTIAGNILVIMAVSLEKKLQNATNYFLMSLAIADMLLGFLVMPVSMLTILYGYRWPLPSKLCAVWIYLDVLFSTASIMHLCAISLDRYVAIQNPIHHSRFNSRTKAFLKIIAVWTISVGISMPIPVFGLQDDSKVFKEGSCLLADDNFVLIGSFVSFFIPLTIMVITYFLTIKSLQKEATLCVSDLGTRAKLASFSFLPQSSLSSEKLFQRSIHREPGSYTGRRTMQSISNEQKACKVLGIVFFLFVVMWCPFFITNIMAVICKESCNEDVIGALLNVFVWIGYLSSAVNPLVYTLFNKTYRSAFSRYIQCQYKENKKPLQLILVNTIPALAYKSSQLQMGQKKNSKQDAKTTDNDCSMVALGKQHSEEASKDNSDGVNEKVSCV
Sequence of Voltage-gated inwardly rectifying potassium channel KCNH2 (Q12809 whole entry): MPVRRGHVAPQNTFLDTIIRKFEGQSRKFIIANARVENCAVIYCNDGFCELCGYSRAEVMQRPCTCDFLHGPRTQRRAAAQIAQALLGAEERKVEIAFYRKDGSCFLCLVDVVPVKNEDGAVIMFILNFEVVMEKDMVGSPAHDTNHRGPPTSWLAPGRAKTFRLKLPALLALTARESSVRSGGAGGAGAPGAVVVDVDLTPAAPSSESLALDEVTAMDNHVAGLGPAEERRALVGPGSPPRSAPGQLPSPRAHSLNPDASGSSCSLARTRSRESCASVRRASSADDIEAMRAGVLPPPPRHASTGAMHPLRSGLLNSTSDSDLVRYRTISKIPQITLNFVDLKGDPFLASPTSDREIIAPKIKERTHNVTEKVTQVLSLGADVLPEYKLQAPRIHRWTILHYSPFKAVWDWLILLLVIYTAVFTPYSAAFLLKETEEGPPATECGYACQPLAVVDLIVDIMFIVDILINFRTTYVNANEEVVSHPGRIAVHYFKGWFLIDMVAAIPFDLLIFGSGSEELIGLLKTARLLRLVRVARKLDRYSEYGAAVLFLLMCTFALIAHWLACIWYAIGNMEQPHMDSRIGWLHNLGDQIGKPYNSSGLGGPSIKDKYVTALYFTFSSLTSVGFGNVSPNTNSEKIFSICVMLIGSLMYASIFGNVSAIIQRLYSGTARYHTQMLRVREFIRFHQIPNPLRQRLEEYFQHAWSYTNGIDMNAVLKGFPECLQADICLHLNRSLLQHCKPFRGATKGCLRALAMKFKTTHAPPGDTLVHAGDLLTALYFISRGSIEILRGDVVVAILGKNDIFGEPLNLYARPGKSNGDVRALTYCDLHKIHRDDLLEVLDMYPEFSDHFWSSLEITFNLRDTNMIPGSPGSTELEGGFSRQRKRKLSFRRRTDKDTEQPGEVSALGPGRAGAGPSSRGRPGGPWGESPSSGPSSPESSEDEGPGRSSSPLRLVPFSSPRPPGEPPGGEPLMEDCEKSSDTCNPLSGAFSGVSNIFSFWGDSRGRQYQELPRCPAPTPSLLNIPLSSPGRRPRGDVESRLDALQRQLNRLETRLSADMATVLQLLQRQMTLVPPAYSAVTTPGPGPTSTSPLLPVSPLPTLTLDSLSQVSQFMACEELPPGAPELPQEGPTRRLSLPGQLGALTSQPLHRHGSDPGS

`CC(C)Cc1ccc(CNC(=O)N(Cc2ccc(F)cn2)C2CCN(C)CC2)cc1` showed an IC50 [1] of 26.4 nM and an IC50 [2] of 8.3 nM.
With `CC(C)COc1ccc(CNC(=O)N(Cc2cccc3sccc23)C2CCN(C)CC2)cc1` the IC50 [1] was greater than 500 nM, the IC50 [2] was greater than 500 nM and the Ratio IC50 [3] was greater than 15. For the same compound, the Ratio IC50 [4] was greater than 10.
With `CC(C)COc1ccc(CNC(=O)N(Cc2ccc(F)cc2)C2CCN(CC(=O)N(C)C)CC2)cc1` the IC50 [1] was 252 nM and the IC50 [2] was 86.4 nM.
`CC(C)COc1ccc(CNC(=O)N(Cc2ccc(F)cn2)C2CCN(C)CC2)cc1` gave a Ratio IC50 [3] of 3 and a Ratio IC50 [4] of 2.
`CC(C)COc1ccc(CNC(=O)N(Cc2cn[nH]c2)C2CCN(C)CC2)cc1` showed an IC50 [1] greater than 500 nM and an IC50 [2] greater than 500 nM.
In the case of `CN1CCC(N(Cc2ccc(F)cn2)C(=O)NCc2ccc3c(c2)CC(C)(C)O3)CC1`, the remaining at 100 µM [5] is reported as 55%, the IC50 [6] is reported as 3610 nM and the half-life at 100 µM [7] is reported as 1.06 h. For the same compound, the half-life at 100 µM [8] was 1.75 h, the CLint scaled at 100 µM [9] was 37.1 mL/min/kg and the CLint scaled at 100 µM [10] was 11.9 mL/min/kg. It also gave a remaining at 100 µM [11] of 66.8%.
Work on `CN1CCC(N(Cc2ccc(F)cn2)C(=O)NCc2ccc(CCC(F)(F)F)cc2)CC1` yielded an IC50 [1] of 18.3 nM and an IC50 [2] of 872 nM.
